Data published in publication PMC9354243, “The Role of Tryptophan in π Interactions in Proteins: An Experimental Approach” (Journal of the American Chemical Society, 2022).

Assays:
LmrR = target: LmrR; design: method as in Takeuchi et al. (SI ref 3, main ref 21); conditions: 25 °C, SPR, ref Takeuchi et al. (SI ref 3, main ref 21); cited from earlier work
[1] = target: T1, RibU W97Y labeled with 5MeW (Lactococcus lactis subsp. cremoris, UniProt D8KIE9, W97Y); assay: Fluorescence titration of RibU with RBF, 5MeW variant; format: binding
T1 construct: His10; made in house; host or cells: Lactococcus lactis Trp auxotroph NZ9000-trp with pMG36e-trpRS
T1 sequence (D8KIE9 whole entry W97Y): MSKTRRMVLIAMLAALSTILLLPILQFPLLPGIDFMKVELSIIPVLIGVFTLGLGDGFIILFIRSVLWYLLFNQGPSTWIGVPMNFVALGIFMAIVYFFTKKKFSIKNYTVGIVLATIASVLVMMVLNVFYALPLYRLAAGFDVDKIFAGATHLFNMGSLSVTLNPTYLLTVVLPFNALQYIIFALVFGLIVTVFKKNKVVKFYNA
Procedure: (§1) Fluorescence titration experiments of the different RibU constructs with RBF at 20 °C allowed estimation of the impact of W68 fluorination or 5-methylation on the binding affinity (Figure 3 and Table 5).
(§2) Figure 3 Titration of Trp analog labeled RibU W97Y proteins with RBF. The RBF fluorescence was measured at the indicated RBF concentrations in the absence (triangles) or presence (dots) of the W97Y RibU variant (see insets). The difference between these two signals were calculated to build the titration curve. This curve was used to compute the RBF Kd (see Experimental Section in the Supporting Information). […]
(§3) Binding assays – Fluorescence titrations of RibU with RBF.
(§4) The concentration of the riboflavin stock was established using a Jasco V-650 spectrophotometer with an ε435 of 12600 M-1.cm-1 The concentration of RibU-His was calculated using a Nanodrop (Thermo […]
(§5) Riboflavin was excited at 435 nm and emission was recorded between 450 nm and 700 nm using a FluoroLog 322 Spectrofluorometer (Jobin Yvon). […] Titration experiments were performed in a 1 mL quartz cuvette at 20 °C as described.13 In brief, purified and desalted RibU protein in gel filtration buffer was titrated with RBF and after each addition the emission spectrum was recorded twice, corrected for buffer emission and instrument response and integrated. […]

[2] = target: T2, RibU W97Y labeled with 5FW (Lactococcus lactis subsp. cremoris, UniProt D8KIE9, W97Y); assay: Fluorescence titration of RibU with RBF, 5FW variant; format: binding
T2 construct: His10; made in house; host or cells: Lactococcus lactis Trp auxotroph NZ9000-trp with pMG36e-trpRS
T2 sequence (D8KIE9 whole entry W97Y): as above
Procedure: as §1, §2, §3, §4, §5

RibU W97Y [3] = assay: Fluorescence titration of RibU with RBF, natural Trp (W); format: binding, Lactococcus lactis; conditions: extrapolation to RibU labeled with tetrafluoroTrp
Procedure: as §1
(§6) Figure 3 Titration of Trp analog labeled RibU W97Y proteins with RBF. The RBF fluorescence was measured at the indicated RBF concentrations in the absence (triangles) or presence (dots) of the W97Y RibU variant (see insets). The difference between these two signals were calculated to build the titration curve. This curve was used to compute the RBF Kd (see Experimental Section in the Supporting Information). Panels from left to right present the results for RibU W97Y, labeled with 5MeW, 5FW, 5,7diFW, and 5,6,7triFW, respectively.
as §3, §4
(§7) Riboflavin was excited at 435 nm and emission was recorded between 450 nm and 700 nm using a FluoroLog 322 Spectrofluorometer (Jobin Yvon). The excitation and emission s lits were set at 1.1 nm and 3.5 nm, respectively. Titration experiments were performed in a 1 mL quartz cuvette at 20 °C as described.13 In brief, purified and desalted RibU protein in gel filtration buffer was titrated with RBF and after each addition the emission spectrum was recorded twice, corrected for buffer emission and instrument response and integrated. The integrated emission intensities were corrected for dilution and compared to the integrated emission of riboflavin collected under these conditions in the absence […]
(§8) The Kd of RBF was derived by first determining the difference in fluorescence signal between the blan k titration with only the gel filtration buffer and the titration using the protein RibU -His in buffer. The obtained curve was fitted using equation I and the program OriginLab16 with n = number of binding sites, X = total RibU concentration, and S = maximal fluorescence signal in A.U. […]

RibU W97Y [4] = target: T3, RibU W97Y (Lactococcus lactis subsp. cremoris, UniProt D8KIE9, W97Y); assay: as above; format: binding
T3 construct: His10; made in house; host or cells: Lactococcus lactis Trp auxotroph NZ9000-trp with pMG36e-trpRS
T3 sequence (D8KIE9 whole entry W97Y): as above
Procedure: as §1, §6, §3, §4, §7, §8

[5] = target: T4, RibU W97Y labeled with 5,6,7triFW (Lactococcus lactis subsp. cremoris, UniProt D8KIE9, W97Y); assay: Fluorescence titration of RibU with RBF, 5,6,7triFW variant; format: binding
T4 construct: His10; made in house; host or cells: Lactococcus lactis Trp auxotroph NZ9000-trp with pMG36e-trpRS
T4 sequence (D8KIE9 whole entry W97Y): as above
Procedure: as §1, §2, §3, §4, §5

Structure (SMILES): COc1cccc2c1C(=O)c1c(O)c3c(c(O)c1C2=O)C[C@@](O)(C(C)=O)C[C@@H]3O[C@H]1C[C@H](N)[C@H](O)[C@H](C)O1 [Dau, Daunomycin]
- Kd (LmrR): 350 nM

Structure (SMILES): Cc1cc2nc3c(=O)[nH]c(=O)nc-3n(C[C@H](O)[C@H](O)[C@H](O)CO)c2cc1C [RBF, riboflavin]
- Kd [1]: 1.2 ± 0.1 nM
- Kd [2]: 5.4 ± 1 nM
- Lowering of ΔG for RBF binding (RibU W97Y [3]): ~8 kJ/mol
- Kd (RibU W97Y [4]): 1.8 ± 0.8 nM
- Electrostatic contribution of W68 as share of total RBF binding energy (RibU W97Y [4]; RibU containing natural Trp): 15–20%
- Kd [5]: 24.9 ± 2.7 nM
- Fold lowering of the affinity by progressive fluorination of W68 ([5]; 20 °C, up to three fluoro-atoms introduced): 15 fold
